From ChEMBL document CHEMBL1139200, “Structure-activity relationships, and drug metabolism and pharmacokinetic properties for indazole piperazine and indazole piperidine inhibitors of ROCK-II” (Bioorg Med Chem Lett, 2007)
Blank lines part the entries; values can stand above or below the compound they belong to.

Columns and labels:
[1] = biological target: Rho-associated protein kinase 2 (Homo sapiens, UniProt O75116); experiment: Inhibition of ROCK2
Cytochrome P450 3A4 = Cytochrome P450 3A4 (Homo sapiens, UniProt P08684)
Cytochrome P450 3A4, sequence (P08684 whole entry): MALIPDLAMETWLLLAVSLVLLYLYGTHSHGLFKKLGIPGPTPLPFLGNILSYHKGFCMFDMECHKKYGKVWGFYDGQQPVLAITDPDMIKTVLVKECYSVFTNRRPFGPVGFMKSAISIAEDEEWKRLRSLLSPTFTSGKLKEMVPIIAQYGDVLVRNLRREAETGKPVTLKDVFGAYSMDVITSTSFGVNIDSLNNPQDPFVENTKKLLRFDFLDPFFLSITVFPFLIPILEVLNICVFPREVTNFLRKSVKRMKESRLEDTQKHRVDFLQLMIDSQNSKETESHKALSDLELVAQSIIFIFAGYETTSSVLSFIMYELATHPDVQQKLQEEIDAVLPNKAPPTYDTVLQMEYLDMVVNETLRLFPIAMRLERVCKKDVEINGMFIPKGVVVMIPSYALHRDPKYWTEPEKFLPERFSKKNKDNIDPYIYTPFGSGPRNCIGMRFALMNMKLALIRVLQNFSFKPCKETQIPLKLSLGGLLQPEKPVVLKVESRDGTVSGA

[2] = Cmax in rat at 2 mg/kg, po; type: ADME, organism-based; parameters: dose 2 mg/kg, route oral; settings: in vivo
[3] = Half life in rat at 1 mg/kg, iv; type: ADME, organism-based; parameters: dose 1 mg/kg, route intravenous; settings: in vivo
[4] = Inhibition of PKA; parameters: species or system Homo sapiens
[5] = AUC (0 to infinity) in rat at 2 mg/kg, po; type: ADME, organism-based; parameters: time infinity, dose 2 mg/kg, route oral; settings: plasma
[6] = Tmax in rat at 2 mg/kg, po; type: ADME, organism-based; parameters: dose 2 mg/kg, route oral; settings: in vivo
[7] = Clearance in rat at 1 mg/kg, iv; type: ADME, organism-based; parameters: dose 1 mg/kg, route intravenous; settings: in vivo
[8] = Oral bioavailability in rat at 2 mg/kg; type: ADME, organism-based; settings: in vivo
[9] = AUC (0 to infinity) in rat at 1 mg/kg, iv; type: ADME, organism-based; parameters: time infinity, dose 1 mg/kg, route intravenous; settings: plasma
[10] = Inhibition of MRCK; parameters: species or system Homo sapiens
[11] = Volume of distribution in rat at 1 mg/kg, iv; type: ADME, organism-based; parameters: dose 1 mg/kg, route intravenous; settings: in vivo
N2a = experiment: Inhibition of LPA-induced neurite retraction in mouse N2A cells; type: functional, cell-based
[12] = Metabolic stability in human liver microsomes
Homo sapiens [13] = species: Homo sapiens; experiment: Selectivity for ROCK2 over MRCK
Homo sapiens [14] = species: Homo sapiens; experiment: Selectivity for ROCK2 over PKA

Rho-associated protein kinase 2, sequence (O75116 whole entry): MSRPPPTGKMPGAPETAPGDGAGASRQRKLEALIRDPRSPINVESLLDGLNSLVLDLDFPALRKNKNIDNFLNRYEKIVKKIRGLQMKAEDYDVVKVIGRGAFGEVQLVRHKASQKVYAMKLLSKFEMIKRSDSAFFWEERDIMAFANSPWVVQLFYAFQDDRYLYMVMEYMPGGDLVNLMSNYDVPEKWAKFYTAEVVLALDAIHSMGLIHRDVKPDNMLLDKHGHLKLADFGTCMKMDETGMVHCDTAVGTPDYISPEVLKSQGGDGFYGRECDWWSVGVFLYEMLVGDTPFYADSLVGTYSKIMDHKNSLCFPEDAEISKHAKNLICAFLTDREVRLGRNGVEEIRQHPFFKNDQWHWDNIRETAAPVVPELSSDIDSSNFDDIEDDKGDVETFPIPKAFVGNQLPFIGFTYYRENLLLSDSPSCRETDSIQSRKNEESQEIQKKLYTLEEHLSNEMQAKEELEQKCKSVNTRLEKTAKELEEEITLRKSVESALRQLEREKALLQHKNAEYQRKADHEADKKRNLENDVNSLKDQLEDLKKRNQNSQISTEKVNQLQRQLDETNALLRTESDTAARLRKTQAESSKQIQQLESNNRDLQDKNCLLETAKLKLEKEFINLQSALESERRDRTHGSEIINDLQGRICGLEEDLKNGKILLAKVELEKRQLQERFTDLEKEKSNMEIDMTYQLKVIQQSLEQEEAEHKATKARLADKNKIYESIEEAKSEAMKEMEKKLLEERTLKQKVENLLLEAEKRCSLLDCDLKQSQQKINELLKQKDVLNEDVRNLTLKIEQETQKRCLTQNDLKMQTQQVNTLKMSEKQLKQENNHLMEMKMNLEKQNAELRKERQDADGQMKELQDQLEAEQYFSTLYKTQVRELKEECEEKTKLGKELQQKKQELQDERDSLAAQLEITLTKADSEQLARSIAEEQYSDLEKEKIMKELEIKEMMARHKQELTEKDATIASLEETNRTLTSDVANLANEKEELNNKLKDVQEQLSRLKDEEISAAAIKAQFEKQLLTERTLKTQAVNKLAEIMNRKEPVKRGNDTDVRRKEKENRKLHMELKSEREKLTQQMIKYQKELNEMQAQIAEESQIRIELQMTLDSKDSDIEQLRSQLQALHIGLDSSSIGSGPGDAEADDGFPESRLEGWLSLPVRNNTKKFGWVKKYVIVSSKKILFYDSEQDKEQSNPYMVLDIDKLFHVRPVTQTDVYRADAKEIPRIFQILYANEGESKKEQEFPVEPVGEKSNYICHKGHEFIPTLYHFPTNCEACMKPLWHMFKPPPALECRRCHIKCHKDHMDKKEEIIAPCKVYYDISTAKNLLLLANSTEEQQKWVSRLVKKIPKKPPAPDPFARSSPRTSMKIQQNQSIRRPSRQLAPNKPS

Compound: O=C([C@@H]1Cc2ccccc2CN1)N1CCN(c2ccc3[nH]ncc3c2)CC1
- IC50 [1]: 5300 nM
- IC50 (Cytochrome P450 3A4): 10000 nM

Compound: O=C([C@H](O)c1cccc(Cl)c1)N1CCN(c2ccc3[nH]ncc3c2)CC1
- IC50 [1]: 1000 nM
- IC50 (Cytochrome P450 3A4): 3500 nM

Compound: N[C@@H](C(=O)N1CCN(c2ccc3[nH]ncc3c2)CC1)c1ccccc1
- IC50 [1]: 1300 nM
- IC50 (Cytochrome P450 3A4): 470 nM

Compound: C[C@H](N)C(=O)N1CCC(Nc2ccc3[nH]ncc3c2)CC1
- IC50 [1]: 6000 nM
- IC50 (Cytochrome P450 3A4): > 10000 nM

Compound: O=C([C@@H](O)c1ccccc1Cl)N1CCC(Nc2ccc3[nH]ncc3c2)CC1
- IC50 [1]: 1700 nM
- IC50 (Cytochrome P450 3A4): 4000 nM

Compound: C[C@H](O)C(=O)N1CCC(Nc2ccc3[nH]ncc3c2)CC1
- IC50 [1]: 10000 nM
- IC50 (Cytochrome P450 3A4): 1000 nM

Compound: O=C([C@H](O)c1ccccc1Cl)N1CCN(c2ccc3[nH]ncc3c2)CC1
- IC50 [1]: 1200 nM
- IC50 (Cytochrome P450 3A4): 8000 nM

Compound: N[C@H](C(=O)N1CCC(Nc2ccc3[nH]ncc3c2)CC1)c1ccccc1
- IC50 [1]: 830 nM

Compound: CC(C)[C@@H](O)C(=O)N1CCN(c2ccc3[nH]ncc3c2)CC1
- IC50 [1]: 3900 nM
- IC50 (Cytochrome P450 3A4): 10000 nM

Compound: C[C@@H](N)C(=O)N1CCN(c2ccc3[nH]ncc3c2)CC1
- IC50 [1]: > 10000 nM
- IC50 (Cytochrome P450 3A4): 10000 nM

Compounds with a lower IC50 [1], results first:

- Cmax [2]: 100 nM
- half-life [3]: 42 min
- IC50 [1]: 100 nM
- IC50 [4]: 2700 nM
- AUC(0-inf) [5]: 0.21 µM·h
- Tmax [6]: 24 min
- clearance [7]: 109 mL/min/kg
- bioavailability [8]: 28%
- AUC(0-inf) [9]: 0.38 µM·h
- IC50 [10]: > 20000 nM
- Vd [11]: 3.7 L/kg
- IC50 (N2a): 2400 nM
Compound: O=C(C(O)c1ccc(Br)cc1)N1CCN(c2ccc3[nH]ncc3c2)CC1 (configuration not stated)

- Cmax [2]: 100 nM
- half-life [3]: 36 min
- half-life ([12]; microsomes): 10.8 min
- IC50 [1]: 13 nM
- IC50 [4]: 940 nM
- AUC(0-inf) [5]: 0.15 µM·h
- Tmax [6]: 42 min
- clearance [7]: 41.4 mL/min/kg
- bioavailability [8]: 8%
- AUC(0-inf) [9]: 0.95 µM·h
- Ratio IC50 (Homo sapiens [13]): 554
- IC50 (Cytochrome P450 3A4): 490 nM
- IC50 [10]: 7200 nM
- Vd [11]: 1.7 L/kg
- Ratio IC50 (Homo sapiens [14]): 72
- IC50 (N2a): 5700 nM
Compound: NC(C(=O)N1CCC(Nc2ccc3[nH]ncc3c2)CC1)c1ccc(Br)cc1 (configuration not stated)

- IC50 [1]: 190 nM
- IC50 (Cytochrome P450 3A4): 3000 nM
Compound: O=C(C(O)c1ccc(Cl)cc1)N1CCN(c2ccc3[nH]ncc3c2)CC1 (configuration not stated)

- IC50 [1]: 470 nM
- IC50 (Cytochrome P450 3A4): 1000 nM
Compound: N[C@@H](Cc1ccccc1)C(=O)N1CCC(Nc2ccc3[nH]ncc3c2)CC1

- IC50 [1]: 190 nM
- IC50 (Cytochrome P450 3A4): 530 nM
Compound: NC(C(=O)N1CCN(c2ccc3[nH]ncc3c2)CC1)c1ccc(Cl)cc1 (configuration not stated)

- IC50 [1]: 770 nM
- IC50 (Cytochrome P450 3A4): 1000 nM
Compound: O=C([C@H](O)c1ccccc1)N1CCC(Nc2ccc3[nH]ncc3c2)CC1

- IC50 [1]: 150 nM
- IC50 (Cytochrome P450 3A4): 170 nM
Compound: NC(C(=O)N1CCC(Nc2ccc3[nH]ncc3c2)CC1)c1cccc(Cl)c1 (configuration not stated)

- IC50 [1]: 350 nM
- IC50 (Cytochrome P450 3A4): 2000 nM
Compound: O=C([C@@H](O)c1cccc(Cl)c1)N1CCC(Nc2ccc3[nH]ncc3c2)CC1

- Cmax [2]: 400 nM
- half-life [3]: 36 min
- half-life ([12]; liver microsomes): 9.8 min
- IC50 [1]: 90 nM
- IC50 [4]: 450 nM
- AUC(0-inf) [5]: 0.09 µM·h
- Tmax [6]: 24 min
- clearance [7]: 75.5 mL/min/kg
- bioavailability [8]: 8%
- AUC(0-inf) [9]: 0.54 µM·h
- Ratio IC50 (Homo sapiens [13]): > 222
- IC50 (Cytochrome P450 3A4): 410 nM
- IC50 [10]: > 20000 nM
- Vd [11]: 2.7 L/kg
- Ratio IC50 (Homo sapiens [14]): 5
- IC50 (N2a): > 15000 nM
Compound: NC(C(=O)N1CCN(c2ccc3[nH]ncc3c2)CC1)c1ccc(Br)cc1 (configuration not stated)

- Cmax [2]: 200 nM
- half-life [3]: 66 min
- half-life ([12]; liver microsomes): 36.3 min
- IC50 [1]: 80 nM
- IC50 [4]: 4200 nM
- AUC(0-inf) [5]: 0.71 µM·h
- Tmax [6]: 24 min
- clearance [7]: 30.3 mL/min/kg
- bioavailability [8]: 26%
- AUC(0-inf) [9]: 1.35 µM·h
- Ratio IC50 (Homo sapiens [13]): > 250
- IC50 (Cytochrome P450 3A4): 3500 nM
- IC50 [10]: > 20000 nM
- Vd [11]: 1.9 L/kg
- Ratio IC50 (Homo sapiens [14]): 53
- IC50 (N2a): 3500 nM
Compound: O=C(C(O)c1ccc(Br)cc1)N1CCC(Nc2ccc3[nH]ncc3c2)CC1 (configuration not stated)

- IC50 [1]: 800 nM
- IC50 (Cytochrome P450 3A4): 10000 nM
Compound: O=C([C@H](O)c1ccccc1)N1CCN(c2ccc3[nH]ncc3c2)CC1

- IC50 [1]: 760 nM
- IC50 (Cytochrome P450 3A4): 250 nM
Compound: NC(C(=O)N1CCN(c2ccc3[nH]ncc3c2)CC1)c1cccc(Cl)c1 (configuration not stated)

- IC50 [1]: 380 nM
- IC50 (Cytochrome P450 3A4): 7000 nM
Compound: N[C@H](Cc1ccccc1)C(=O)N1CCN(c2ccc3[nH]ncc3c2)CC1
